Measured values: patent US12263248B2, “Compounds and compositions for intracellular delivery of therapeutic agents” (ModernaTX, Inc., priority 2018, dated 2025)

Assays:
[1] = Lipid clearance: lipid level in mouse liver tissue (LC-MS/MS); format: in vivo; conditions: Table 3E, mouse liver
Procedure: Quantification of Lipid by LC-MS/MS: Liver samples were homogenized following addition of 19 eq. (w/v) of water (DF=20). Protein was precipitated and analyzed against calibration standards prepared in matching blank. Chromatographic separation and quantification was accomplished with a LC-MS/MS System. Samples were injected and separated via HPLC A triple-quadrupole MS/MS system operated in positive ion mode was used for signal detection.

[2] = Particle size and polydispersity index of nanoparticle compositions (Zetasizer Nano ZS); format: physicochemical
Outline: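 Particle size and PDI were measured on a Zetasizer Nano ZS with the nanoparticle compositions dispersed in 1×PBS.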

[3] = Apparent (surface) pKa of the LNP formulation (TNS assay); format: physicochemical; conditions: for pKa: Table 1A
Outline: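 LNP (0.04 mg/mL mRNA) mixed with TNS reagent in 21 buffers spanning about pH 3-12, in triplicate; fluorescence plotted against pH as sigmoidal curve. Apparent pKa taken as […] curve inflection point; validated in 1× PBS and 20 mM Tris w/8% sucrose.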

luciferase (Luc) mRNA [4] = experiment: Luc expression, whole body bioluminescence after intravenous administration to mice; format: in vivo; conditions: for Total Flux 3 hours / Total Flux 6 hours / Total Flux 24 hours: Luc mRNA
Outline: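 Luc mRNA nanoparticle formulations given intravenously to mice (n=6) at 0.5 mg/kg; whole-body bioluminescence imaged at 3, 6 and 24 h. CD-1 mice received IP D-luciferin (200 μL of 15 mg/mL) 15 min before imaging; total flux quantified by region of interest.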

[5] = Encapsulation efficiency of RNA (QUANT-IT RIBOGREEN RNA assay); format: physicochemical; conditions: for EE (%): Table 1A
Outline: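 RiboGreen fluorescence (ex ~480, em ~520 nm) compared between intact samples and Triton X-100-lysed samples after 15 min at 37 °C in TE buffer, pH 7.5. Percent free RNA is the blank-corrected intact/disrupted ratio.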

IL-6, IP-10 = experiment: Cytokine induction in mice upon intravenous administration; format: in vivo; set-up: Cytokine induction IL-6 / Cytokine induction IP-10: unit not given here; conditions: 0.5 mpk, 6 hours; for Cytokine induction IL-6 / Cytokine induction IP-10: intravenous
Excerpt: The introduction of foreign material into a mammalian body induces an innate immune response that promotes cytokine production. Such immune responses to, for example, nanoparticle compositions including therapeutic and/or prophylactics, are undesirable. The induction of certain cytokines is thus measured to evaluate the […] of nanoparticle compositions. The concentrations of various cytokines in mice upon intravenous administration of nanoparticle compositions presented in Table 1A at a dosage of 0.5 mpk was measured at 6 hours. The standard MC3 formulation and a PBS control were also tested. As is evident in Table 7, IL-6 induction was highest for compositions including Compounds 1, 3, 9, 19, and 26, while IP-10 induction was highest for compositions including Compounds 3, 4, 7, 20, and 26. IL-6 induction was lowest for compositions including Compounds 4, 11, 12, and 28. IP-10 induction was lowest for compositions including Compounds 10, 11, 12, 13, 15, 17, and 18.

luciferase (Luc) mRNA [6] = experiment: Luc expression (total flux) after intramuscular administration; format: in vivo, mice; conditions: 6 hours after intramuscular administration
Procedure: In order to monitor how effectively various nanoparticle compositions deliver therapeutic and/or prophylactics to targeted cells, different nanoparticle compositions including a particular therapeutic and/or prophylactic (for example, a modified or naturally occurring RNA such as an mRNA) are prepared and administered to rodent populations. Mice are intravenously, intramuscularly, intraarterially, or intratumorally administered a single dose including a nanoparticle composition with a formulation such as those provided in Example 3. In some instances, mice may be made to inhale doses. Dose sizes may range from 0.001 mg/kg to 10 mg/kg, where 10 mg/kg describes a dose including 10 mg of a therapeutic and/or prophylactic in a nanoparticle composition for each 1 kg of body mass of the mouse. A control composition including PBS may also be employed.
Sample formulations including both modified luciferase (Luc) mRNA and H10 mRNA were prepared and administered intramuscularly and the resulting expression and immunogenicity were evaluated simultaneously. Formulations including compounds according to Formula (I), (IA), (IB), (II), (IIa), (IIb), (IIc), (IId), (IIe), (IIf), (IIg), (III), (VI), (VI-a), (VII), (VIII), (VIIa), (VIIIa), (VIIIb), (VIIb-1), (VIIb-2), (VIIb-3), (VIIc), (VIId), (VIIIc), or (VIIId) were prepared and administered at doses of 0.001 and 0.01 mpk (e.g., doses of 0.0005 mpk of a formulation including Luc mRNA and a formulation including H10 mRNA or doses of 0.005 mpk of a formulation including Luc mRNA and a formulation including H10 mRNA).
Sample formulations including modified luciferase (Luc) mRNA prepared and administered intramuscularly and the resulting expression and immunogenicity were evaluated simultaneously. Formulations including compounds according to Formula (I), (IA), (IB), (II), (IIa), (IIb), (IIc), (IId), (IIe), (IIf), (IIg), (III), (VI), (VI-a), (VII), (VIII), (VIIa), (VIIIa), (VIIIb), (VIIb-1), (VIIb-2), (VIIb-3), (VIIc), (VIId), (VIIIc), or (VIIId) were prepared and administered at dose of and 0.01 mpk.

luciferase (Luc) mRNA [7] = experiment: Luc expression in liver, lung, spleen and femur 6 hours after intravenous administration; format: in vivo; conditions: mice, intravenous, 0.5 mpk
Outline: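 LNP-formulated mRNA given IV to mice (n=3) at 0.5 mpk; at 6 h, bioluminescence imaged ex vivo 15 min after IP D-luciferin (15 mg/mL, 200 μL), organs imaged within 25 min. Values are total flux by region of interest.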

luciferase mRNA = experiment: Luciferase expression after subcutaneous administration to mice; format: in vivo, female CD-1 mice; conditions: 0.5 mpk, relative to MC3
Procedure: The effect of the lipids of the disclosure on protein expression upon subcutaneous administration was studied. Formulations containing lipids of the disclosure and an mRNA expressing luciferase or hEPO were administered subcutaneously to female CD-1 mice at 0.5 mpk. Expression levels were obtained via whole body luminescent imaging (BLI) at 3, 6 and 24 hours after injection and expression levels in liver, spleen and at the injection site were evaluated ex vivo after 24 hours. […] See also Tables 35 and 36, and FIGS. 19 and 27.
Table 35 summarizes the luciferase expression levels using various nanoparticle compositions of the disclosure, and the luciferase expression levels using various nanoparticle compositions of the disclosure as compared to the luciferase expression level using an MC3 formulation after subcutaneous administration, as described above.

[8] = Table 1A, lipid:DSPC:cholesterol:PEG-DMG 50:10:38.5:1.5 mol %
[9] = Table 1E, compositions for subcutaneous administration

| Compound | PDI ([2]; Table 1A) | Size (nm) [2, 8] | pKa [3] | EE (%) [5] | Cytokine induction IL-6 (IL-6, IP-10) | Cytokine induction IP-10 (IL-6, IP-10) | Total Flux 3 hours (luciferase (Luc) mRNA [4]; mice, i.v., 0.5 mg/kg) | Total Flux 6 hours (luciferase (Luc) mRNA [4]; mice, i.v., 0.5 mg/kg) | Total Flux 24 hours (luciferase (Luc) mRNA [4]; mice, i.v., 0.5 mg/kg) | Total Flux Femur (luciferase (Luc) mRNA [7]) | Total Flux Liver (luciferase (Luc) mRNA [7]) | Total Flux Lung (luciferase (Luc) mRNA [7]) | Total Flux Spleen (luciferase (Luc) mRNA [7]) | IP-10 induction (IL-6, IP-10; i.v., in words) | further results |
| --- | --- | --- | --- | --- | --- | --- | --- | --- | --- | --- | --- | --- | --- | --- | --- |
| CCCCCCCCCOC(=O)CCCCCCCN(CCO)CCCCCCCC(=O)OC(CCC1CC1CCCC)CCC1CC1CCCC (stereo not shown) [Compound 160, 1,5-Bis(2-butylcyclopropyl)pentan-3-yl 8-((2-hydroxyethyl)(8-(nonyloxy)-8-oxooctyl)amino)octanoate] | 0.15 | 89.0 nm | 6.54 | 94.0% |  |  |  |  |  |  |  |  |  |  | % Remaining dose at 6 h ([1]; 6 h): 0.056%; % Remaining dose at 24 h ([1]; 24 h): 0%; 6 h BLI Lipid/MC3 (luciferase (Luc) mRNA [4]; Table 3E, intravenous): 0.29 |
| CCCCCCCCCCCCN(CCO)CCCCCCCCCCCC(=O)OC [Compound 137, Methyl 12-(dodecyl(2-hydroxyethyl)amino)dodecanoate] |  |  | 7.06 |  | 130.82 | 234.35 | 3.77E+05 | 5.02E+05 | 4.49E+05 | 2.02E+04 | 6.48E+04 | 1.66E+04 | 1.32E+05 |  | Total flux, 0.001 mpk Dose (luciferase (Luc) mRNA [6]; 0.001 mpk, Luc mRNA and H10 mRNA): 7.57E+04 p/s; Total flux, 0.01 mpk Dose (luciferase (Luc) mRNA [6]; 0.01 mpk, Luc mRNA and H10 mRNA): 8.09E+04 p/s |
| CCCCCCCCCOC(=O)CCCCCCCN(CCCCCCCC(=O)OC(CCCCCCCC)CCCCCCCC)CC(C)O (stereo not shown) [Compound 10, Heptadecan-9-yl 8-((2-hydroxypropyl)(8-(nonyloxy)-8-oxooctyl)amino) octanoate] | 0.18 | 102.9 nm | 6.09 | 89.60% | 88.81 | 138.16 | 6.03E+08 | 2.37E+09 | 4.04E+07 | 5.09E+05 | 3.22E+08 | 8.85E+05 | 8.17E+06 | lowest |  |
| CCCCCCCCCOC(=O)CCCCCCCN(CCCCCCCC(=O)OC(CCCCCCCC)CCCCCCCC)CC(O)CO (stereo not shown) [Compound 69, Heptadecan-9-yl 8-((2,3-dihydroxypropyl)(8-(nonyloxy)-8-oxooctyl)amino)octanoate] | 0.13 | 77.2 nm | 6.92 | 98.4% |  |  | 3.38E+09 | 7.95E+09 | 1.15E+08 |  | 2.24E+08 | 7.34E+05 | 2.54E+06 |  | PDI [2, 9]: 0.09; Size (nm) [2, 9]: 71.8 nm; App. pKa ([3]; Table 3F): 6.95; Total flux (p/s) 0.01 mpk Dose (luciferase (Luc) mRNA [6]; Table 5B, 0.01 mpk): 8.83E+06 p/s; Novel lipid/MC3 expression ratio, 6 hr. time point, s.c. Luc 0.5 mpk (luciferase mRNA): 0.14; % EE [5, 9]: 99% |
| CCCCCCCCCOC(=O)CCCCCCCN(CCCCCCCC(=O)OC(CCCCCCCC)CCCCCCCC)CCCOC [Compound 16, Heptadecan-9-yl 8-((3-methoxypropyl)(8-(nonyloxy)-8-oxooctyl)amino) octanoate] | 0.16 | 119.0 nm | 5.52 | 91.32% | 32.01 | 206.75 | 2.58E+08 | 5.45E+08 | 2.37E+07 | 2.55E+05 | 3.17E+07 | 4.18E+05 | 5.43E+06 |  | Fold increase in total body Luc Flux relative to MC3 at 6 h (luciferase (Luc) mRNA [4]; Table 3A, i.v. administration): 0.02 |
| CCCCCCCCCOC(=O)CCCCCCCN(CCCCCCCC(=O)OC(CCCCCCCC)CCCCCCCC)CCOCCN(C)C [Compound 17, Heptadecan-9-yl 8-((2-(2-(dimethylamino)ethoxy)ethyl) (8-(nonyloxy)-8-oxooctyl)amino)octanoate] | 0.24 | 85.2 nm | 7.76 | 91.84% | 138.43 | 156.41 | 7.72E+06 | 3.58E+06 | 6.79E+05 | 9.55E+04 | 5.52E+05 | 9.95E+04 | 5.58E+06 | lowest | flux at all timepoints measured (luciferase (Luc) mRNA [4]; mice, i.v., 0.5 mg/kg, 3, 6 and 24 hour, in words): significantly lower flux |
| CCCCCCCCCOC(=O)CCCCCCCN(CCCCCCCC(=O)OC(CCCCCCCC)CCCCCCCC)C[C@@H](C)O [Compound 11, Heptadecan-9-yl (R)-8-((2-hydroxypropyl)(8-(nonyloxy)-8-oxooctyl)amino)octanoate] | 0.13 | 129.6 nm | 5.97 | 92.47% | 0.14 | 44.84 | 3.38E+09 | 7.11E+09 | 1.15E+08 |  | 8.03E+08 | 1.35E+07 | 1.04E+08 | lowest | IL-6 induction (IL-6, IP-10; i.v., in words): lowest |
| CCCCCCCCCOC(=O)CCCCCCCN(CCCCCCCC(=O)OC(CCCCCCCC)CCCCCCCC)CCOC [Compound 15, Heptadecan-9-yl 8-((2-methoxyethyl)(8-(nonyloxy)-8-oxooctyl)amino)octanoate] | 0.094 | 111.1 nm | 5.58 | 92.47% | 64.65 | 184.30 | 4.31E+08 | 4.41E+07 | 2.05E+06 | 5.93E+04 | 6.23E+06 | 6.41E+04 | 9.01E+05 | lowest |  |
